Source: US9340577B2, “HLA binding motifs and peptides and their uses” (priority 1992, dated 2016)
Several values for one entry are separate records, joined by “and”; a condition that tells them apart may be missing. Equal values may be shown once. Read-outs that look alike come from different tables or passages of the source. No end group written: not given here.

Tests used:
[1] = tested on: HLA-A24; assay type: binding, human
[2] = biological target: A2.1 HLA molecules (Homo sapiens, UniProt P04439, D140Y/D185E/D98H/E176V/E277Q/G131W/G231S/I119V/I121R/I166T/I218V/L300P/L318F/N151K/N90K/P208A/P217A/Q86G/Q94H/R138H/R169H/T345S); assay type: binding; set-up: A*0201 / A2.1 Binding / A2 Bind. / A2 / A2.1 (binding capacity): scale not given here
[3] = biological target: HLA-A*0201 (HLA-A2.1) (Homo sapiens, UniProt P04439, D140Y/D185E/D98H/E176V/E277Q/G131W/G231S/I119V/I121R/I166T/I218V/L300P/L318F/N151K/N90K/P208A/P217A/Q86G/Q94H/R138H/R169H/T345S); assay: biochemical; assay type: binding
[4] = biological target: HLA-A1 (A*0101) (Homo sapiens, UniProt P04439, A114D/A174V/A182V/D101N/D185E/E176A/E190D/L180R/Q94H/R68K/S129P/T187R/V100A/V91M/W191G); assay: biochemical; assay type: binding
[5] = biological target: A*2902 (Homo sapiens, UniProt P04439, A270S/D101N/D185E/E176V/E277Q/E87Q/F33T/G231S/H175R/I121M/I218V/I322F/K168Q/L300P/L318F/M331R/P208A/P217A/Q86L/T323A/T345S/V100A/V358M); assay: biochemical; assay type: binding
[6] = biological target: A*3002 (Homo sapiens, UniProt P04439, D101N/D140H/D185E/E176R/F33S/G80R/H175R/K168Q/Q94H/R138E/R41S/V100E); assay: biochemical; assay type: binding
Chain of A*3002 (P04439 whole entry, looked up, the tested form may be a part, stated change not applied): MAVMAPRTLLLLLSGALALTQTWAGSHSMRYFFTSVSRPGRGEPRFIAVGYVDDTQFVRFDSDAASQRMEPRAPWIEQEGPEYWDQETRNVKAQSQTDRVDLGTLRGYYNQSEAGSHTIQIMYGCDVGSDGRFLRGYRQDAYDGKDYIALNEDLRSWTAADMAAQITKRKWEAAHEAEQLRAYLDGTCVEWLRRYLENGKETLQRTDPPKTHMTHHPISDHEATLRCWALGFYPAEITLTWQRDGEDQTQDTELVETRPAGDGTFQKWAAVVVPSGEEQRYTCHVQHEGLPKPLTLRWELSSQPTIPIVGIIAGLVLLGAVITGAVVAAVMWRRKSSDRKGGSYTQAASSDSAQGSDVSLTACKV

| Substance | binding to HLA-A24 (column 6; no allele head shown for these rows) [1] | binding to HLA-A2.1 (column 3; no allele head shown for these rows) [3] | IC50 [4] [nM] | IC50 [6] [nM] | other results |
| --- | --- | --- | --- | --- | --- |
| KAGLLIIVL | 0 | – | – | – | – |
| ALAETSYVKV | 0 | 0.017 | – | – | A2 [2]: 0.0150; A2 Bind. [2]: 0.0150 |
| YSKVSEFRWY [Peptide 78.0009] | – | – | 539 | – | IC50 [5]: 4510 nM |
| RTDSVILNVLY [Peptide 9012.0162] | – | – | 14 | 8.5 | IC50 [5]: 954 nM |
| QIMPKTGFLII | 0.0030 | 0.0003 | – | – | – |
| RFHSIAGQY [Peptide 78.0376] | – | – | > 20000 | 1 | – |
| SAYGEPRKLL | 0.0008 | 0 | – | – | – |
| LAETSYVKVL | <0.0002 | 0 | – | – | – |
| IMPKTGFLI | 3.2 | 0.0035 | – | – | – |
| YSRIRELRY [Peptide 78.0253] | – | – | 308 | – | IC50 [5]: 6280 nM |
| GLLGDNQIM | 0.0002 | 0.0054 | – | – | A2.1 [3]: 0.0051 |
| FLLLKYRA | 0 | 0.0007 | – | – | – |
| KVAELVHFL | 0.0005 | 0.073 | – | – | – |
| EYRHYNYSVY [Peptide 78.0180] | – | – | > 20000 | 253 | IC50 [5]: 16000 nM |
| LTEITGYLY [Peptide 9012.0126] | – | – | 16 | 151 | IC50 [5]: 25 nM |
| GLVCVQAA | 0 | 0.0008 | – | – | – |
| GLVCVQAAT | 0.0001 | 0.0007 | – | – | – |
| MLESVIKNYK | 0 | 0 | – | – | – |
| ILLWQPIPV | 0 | 1.4 | – | – | – |
| ETSYVKVLEY | 0 | 0 | – | – | – |
| VIPHAMSSCGV | 0 | 1.4 | – | – | – |
| ALAETSYVK | 0 | 0.0002 | – | – | – |
| GASSFSTTI | 0.0002 | 0 | – | – | – |
| YSDREIIY [Peptide 9012.0096] | – | – | 93 | – | IC50 [5]: > 20000 nM |
| MLETLNNTEY [Peptide 1580.24] | – | – | 36 | 1120 | – |
| KFYSKISEY [Peptide 78.0363] | – | – | > 20000 | 9.5 | IC50 [5]: 1590 nM |

| Substance | binding to HLA-A24 (column 6; no allele head shown for these rows) [1] | binding to HLA-A2.1 (column 3; no allele head shown for these rows) [3] | IC50 [4] [nM] | IC50 [6] [nM] | other results |
| --- | --- | --- | --- | --- | --- |
| QAATSSSSPL | <0.0002 | 0 | – | – | – |
| AALSRKVAEL | 0 | – | – | – | – |
| FLIIVLVMIAM | 0.0011 | 0.0041 and 0.0031 | – | – | – |
| VLVTCLGL | 0 | 0.0010 | – | – | – |
| AAISRKMVEL | 0 | 0 | – | – | – |
| LYPEPTDLY [Peptide 78.0354] | – | – | > 20000 | 1470 | – |
| ATLERTEVY [Peptide 78.0252] | – | – | 656 | 26 | IC50 [5]: 557 nM |
| LFTDLRIVY [Peptide 78.0378] | – | – | – | 89 | IC50 [5]: 12 nM |
| SLQLVFGI | 0 | 0.0094 | – | – | – |
| F185.01 (LYSACFWWL) [Peptide F185.01] | – | – | – | – | IC50 ([1]; read-out: A*2402): 28 nM |
| FYSKVRKYRY [Peptide 78.0176] | – | – | > 20000 | 326 | IC50 [5]: 146 nM |
| VAELVHFLLL | 0.0018 | – | – | – | – |
| KALKFYSKI [Peptide E6-72] | – | – | – | – | binding class for HLA-A24 [1]: high affinity (key: high affinity: >0.1; intermediate affinity: 0.1-0.01; low affinity: 0.01-0.001) |
| QAEQATSNYY [Peptide 78.0022] | – | – | – | 1440 | IC50 [5]: > 20000 nM |
| EMLESVIKN | – | – | – | – | A24 [1]: 0; A2.1 [3]: <0.0002 |
| ESNSLKCLRY [Peptide 1580.26] | – | – | 359 | 604 | IC50 [5]: 7510 nM |
| EIWEELSVMEV | 0 | 0.013 | – | – | – |
| KAEMLESVI | <0.0002 | 0 | – | – | – |
| KAEMLESVL | 0 | 0 | – | – | – |
| RFHNIMGRW [Peptide 78.0381] | – | – | > 20000 | 27 | IC50 [5]: > 20000 nM |
| GASSLPTTM | 0.0010 | 0 | – | – | – |
| LFYSKVRKY [Peptide 78.0384] | – | – | > 20000 | 35 | IC50 [5]: 201 nM |
| LSDISEYRHY [Peptide 1549.45] | – | – | 27 | – | IC50 [5]: 14500 nM |
| LKEYVLDLY [Peptide 78.0250] | – | – | > 20000 | 76 | IC50 [5]: 3310 nM |
| QAEPDRAHY [Peptide 78.0244] | – | – | 3270 | 16 | IC50 [5]: > 20000 nM |
| EYRHYQYSLY [Peptide 78.0183] | – | – | 2270 | 130 | IC50 [5]: 2370 nM |

| Substance | binding to HLA-A24 (column 6; no allele head shown for these rows) [1] | binding to HLA-A2.1 (column 3; no allele head shown for these rows) [3] | IC50 [4] [nM] | IC50 [6] [nM] | other results |
| --- | --- | --- | --- | --- | --- |
| GNEKTYFKY [Peptide 86.0160] | – | – | 2300 | 739 | IC50 [5]: 319 nM |
| IMPKTGFLII | 0.050 | 0.0007 | – | – | – |
| LVFGIELMEV | 0 | – | – | – | – |
| VTETLEEITGY [Peptide 9012.0178] | – | – | 20 | 11300 | IC50 [5]: > 20000 nM |
| SLQLVFGIDV | 0.0001 | 0.0047 | – | – | – |
| AFTDLTIVY [Peptide 78.0348] | – | – | 31 | 71 | IC50 [5]: 36 nM |
| NTDILTVTY [Peptide 1593.17] | – | – | 22 | 2000 | – |
| VADLVGFLLL | 0.0003 | 0.0008 | – | – | – |
| ELDPVDLLCY [Peptide 78.0017] | – | – | 26 | 12700 | – |
| VAELVHFLL | 0.039 | 0 | – | – | – |
| ILESLFRA | 0.0011 | 0.0017 | – | – | – |
| YLEYGRCRTV | 0 | 0.0097 | – | – | – |
| ISEYRHYQY [Peptide 78.0254] | – | – | 46 | 81 | IC50 [5]: 853 nM |
| EALEAQQEAL | 0 | 0 | – | – | – |
| GASAFPTTI | <0.0002 | 0 | – | – | – |
| ALGLVCVQAA | 0 | 0.0002 | – | – | – |
| VADLVGFLL | 0.0007 | 0.0011 | – | – | – |
| RAHYNIVTF [Peptide E7-49] | – | – | – | – | binding class for HLA-A24 [1]: intermediate affinity (key: high affinity: >0.1; intermediate affinity: 0.1-0.01; low affinity: 0.01-0.001) |
| VLGTLEEV | 0 | 0.0088 | – | – | – |
| RFHNIGGRW [Peptide 78.0369] | – | – | > 20000 | 13 | IC50 [5]: 12200 nM |
| KVADLVGFL | 0 | 0.0091 | – | – | – |
| AATSSSSPL | <0.0002 | 0 | – | – | – |
| EAQQEALGL | <0.0002 | 0 | – | – | – |
| SAYGEPRKL | <0.0002 | 0.0002 | – | – | – |
| AYIDNVYKF [Peptide 979-01, reference compound] | – | – | – | – | apparent % of available receptor (active MHC) [1]: 8.3%; Kd ([1]; read-out: KD from Scatchard experiments, A24): 136 nM; Kd ([1]; read-out: apparent KD from cold inhibition experiments, A24): 30 nM |
